Source: patent publication US9815851B2, “Pyrrolo carboxamides as modulators of orphan nuclear receptor RAR-related orphan receptor-gamma (RORγ, NR1F3) activity and for the treatment of chronic inflammatory and autoimmune diseases” (PHENEX PHARMACEUTICALS AG, priority 2011, dated 2017)
Like-named read-outs stand apart in the source and are kept apart here.

How the values were obtained:
RORγ = target: T1, RORγ (UniProt P51449); test: RORγ Gal4 Reporter Gene Assay in 293T cells (firefly and renilla luciferase); assay type: cell-based, human
T1 sequence (P51449 1-518): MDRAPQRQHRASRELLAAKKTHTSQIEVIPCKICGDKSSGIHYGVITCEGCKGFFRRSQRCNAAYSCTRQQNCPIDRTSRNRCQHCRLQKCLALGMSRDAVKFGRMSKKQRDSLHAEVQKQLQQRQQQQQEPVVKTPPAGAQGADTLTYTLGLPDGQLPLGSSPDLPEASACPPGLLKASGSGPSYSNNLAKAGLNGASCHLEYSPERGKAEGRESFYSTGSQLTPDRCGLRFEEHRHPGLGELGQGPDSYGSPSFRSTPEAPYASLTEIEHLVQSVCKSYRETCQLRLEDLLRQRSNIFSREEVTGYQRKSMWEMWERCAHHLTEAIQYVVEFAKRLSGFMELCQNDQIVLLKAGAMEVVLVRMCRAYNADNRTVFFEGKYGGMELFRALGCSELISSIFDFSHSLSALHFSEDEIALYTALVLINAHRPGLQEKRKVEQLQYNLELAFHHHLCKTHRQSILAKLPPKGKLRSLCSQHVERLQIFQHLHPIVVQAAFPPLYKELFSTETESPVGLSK

[1] = target: T2, RORγ ligand binding domain (LBD) (Homo sapiens, UniProt P51449); test: TR-FRET Activity Assay (ligand sensing, RORγ-LBD / coactivator peptide interaction, LANCE); assay type: biochemical
T2 construct: made in house; host or cells: E. coli BL-21 (BL3), vector pDEST15
T2 sequence (P51449 269-508 limits assumed): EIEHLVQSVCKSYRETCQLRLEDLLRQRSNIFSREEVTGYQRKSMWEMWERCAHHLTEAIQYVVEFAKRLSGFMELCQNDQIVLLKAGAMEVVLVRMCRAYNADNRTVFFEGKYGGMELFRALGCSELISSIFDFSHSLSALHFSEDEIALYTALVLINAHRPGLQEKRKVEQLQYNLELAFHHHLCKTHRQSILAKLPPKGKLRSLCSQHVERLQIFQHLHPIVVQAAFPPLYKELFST

[2] = second value of the cell, Gal4 reporter gene assay in 293T cells, firefly luciferase
[3] = third value of the cell, Gal4 reporter gene assay in 293T cells, renilla normalised luciferase
[4] = first value of the cell FRET/FF/REN, TR-FRET activity assay, read-out: pIC50 (FRET) (converted)

| pIC50 (FF) (RORγ; [2]) | pIC50 (REN) (RORγ; [3]) | IC50 [1, 4] | SMILES | pIC50 (FF) (RORγ) | pIC50 (REN) (RORγ) | IC50 [1] |
| --- | --- | --- | --- | --- | --- | --- |
| – | – | – | Cc1c(C(=O)NC2CCOCC2)cc(-c2ccc(S(=O)(=O)NC(C)(C)C)c(C(C)(C)C)c2)n1CC1CCCC1 [17/212] | 6.2/7.3/7.4 | 6.2/7.3/7.4 | 631 nM |
| – | – | – | Cc1c(C(=O)NC2CCOCC2)cc(-c2ccc(S(=O)(=O)NC(C)(C)C)c(C(C)(C)C)c2)n1CC1CCC1 [17/213] | 6.2/7.1/7.2 | 6.2/7.1/7.2 | 631 nM |
| 7.5 | 7.5 | 251 nM | Cc1c(C(=O)NC2CCOCC2)cc(-c2ccc(S(=O)(=O)NC(C)(C)C)c(C(F)(F)F)c2)n1CC1CCCC1 [17/214] | – | – | – |
| 7.5 | 7.3 | 316 nM | Cc1c(C(=O)NC2CCOCC2)cc(-c2ccc(S(=O)(=O)NC(C)(C)C)c(C(F)(F)F)c2)n1CC1CCC1 [17/215] | – | – | – |
| 7.8 | 7.8 | 200 nM | CCC(C)(C)NS(=O)(=O)c1ccc(-c2cc(C(=O)NC3CCOCC3)c(C)n2CC2CCCC2)cc1C(F)(F)F [17/216] | – | – | – |
| 7.6 | 7.7 | 126 nM | CCC(C)(C)NS(=O)(=O)c1ccc(-c2cc(C(=O)NC3CCOCC3)c(C)n2CC2CCC2)cc1C(F)(F)F [17/217] | – | – | – |
| 7.1 | 7.3 | 316 nM | Cc1c(C(=O)NC2CCOCC2)cc(-c2ccc(S(=O)(=O)NC(C)(C)C)c(C(F)(F)F)c2)n1S(=O)(=O)C1CCCCC1 [17/218] | – | – | – |
| 6.6 | 6.6 | 316 nM | Cc1c(C(=O)N[C@H]2C[C@H](C(=O)O)C2)cc(-c2ccc(S(=O)(=O)NC(C)(C)C)c(C(F)(F)F)c2)n1CC1CCCCC1 [17/220] | – | – | – |
| 7.1 | 7.1 | 2000 nM | Cc1c(C(=O)N[C@H]2C[C@H](C(=O)O)C2)cc(-c2ccc(S(=O)(=O)NC(C)(C)C)c(C(C)(C)C)c2)n1CC1CCCCC1 [17/221] | – | – | – |
| 7.4 | 7.5 | 631 nM | Cc1c(C(=O)NCCC(C)(C)C(=O)O)cc(-c2ccc(S(=O)(=O)NC(C)(C)C)c(C(F)(F)F)c2)n1CC1CCCCC1 [17/222] | – | – | – |
| 7.1 | 7.2 | 398 nM | Cc1c(C(=O)N[C@H]2CC[C@H](C(=O)O)CC2)cc(-c2ccc(S(=O)(=O)NC(C)(C)C)c(C(F)(F)F)c2)n1CC1CCCCC1 [17/223] | – | – | – |
| 7.1 | 7.2 | 794 nM | Cc1c(C(=O)N2CCC(C)(C(=O)O)CC2)cc(-c2ccc(S(=O)(=O)NC(C)(C)C)c(C(F)(F)F)c2)n1CC1CCCCC1 [17/224] | – | – | – |
| – | – | – | Cc1c(C(=O)NC2CCOCC2)cc(-c2ccc(S(=O)(=O)NC3(C)CC3)c(C(C)(C)C)c2)n1CC1CCCCC1 [17/227] | 6.3/8.1/8.1 | 6.3/8.1/8.1 | 501 nM |
| 7.7 | 7.7 | 398 nM | Cc1c(C(=O)NC2CCOCC2)cc(-c2ccc(S(=O)(=O)NC3CCC3)c(C(C)(C)C)c2)n1CC1CCCCC1 [17/228] | – | – | – |
| 7.2 | 7.3 | 631 nM | Cc1c(C(=O)NC2CCOCC2)cc(-c2cc(F)c(S(=O)(=O)NC(C)(C)C)c(C(F)(F)F)c2)n1CC1CCCCC1 [17/229] | – | – | – |
| 7.5 | 7.6 | 251 nM | Cc1c(C(=O)NC2CCOCC2)cc(-c2cc(C(F)(F)F)c(S(=O)(=O)NC(C)(C)C)cc2F)n1CC1CCCCC1 [17/230] | – | – | – |
| – | – | – | Cc1cc(-c2cc(C(=O)NC3CCOCC3)c(C)n2CC2CCCCC2)cc(C(F)(F)F)c1S(=O)(=O)NC(C)(C)C [17/232] | 6.1/6.8/7.0 | 6.1/6.8/7.0 | 794 nM |

| pIC50 (FF) (RORγ; [2]) | pIC50 (REN) (RORγ; [3]) | IC50 [1, 4] | SMILES | pIC50 (FF) (RORγ) | pIC50 (REN) (RORγ) | IC50 [1] |
| --- | --- | --- | --- | --- | --- | --- |
| – | – | – | Cc1cc(S(=O)(=O)NC(C)(C)C)c(C(F)(F)F)cc1-c1cc(C(=O)NC2CCOCC2)c(C)n1CC1CCCCC1 [17/233] | 5.8/6.5/6.5 | 5.8/6.5/6.5 | 1580 nM |
| 7.1 | 7.2 | 200 nM | Cc1c(C(=O)NC2CCOCC2)cc(-c2ccc(S(=O)(=O)NC(C)(C)C)c(Cl)c2)n1CC1CCCCC1 [17/234] | – | – | – |
| 7.6 | 7.6 | 200 nM | Cc1c(C(=O)NC2CCOCC2)cc(-c2cc(Cl)c(S(=O)(=O)NC(C)(C)C)c(Cl)c2)n1CC1CCCCC1 [17/235] | – | – | – |
| 8.1 | 8.2 | 631 nM | Cc1c(C(=O)NC2CCOCC2)cc(-c2ccc(S(=O)(=O)NC(C)(C)C)c3ccccc23)n1CC1CCCCC1 [17/236] | – | – | – |
| 6.9 | 6.7 | 1000 nM | Cc1c(C(=O)NC2CCOCC2)cc(-c2ccc(S(=O)(=O)NC(C)(C)C)c(F)c2)n1CC1CCCCC1 [17/238] | – | – | – |
| 7.9 | 8.1 | 1000 nM | Cc1c(C(=O)NCC2(O)CCOCC2)cc(-c2ccc(S(=O)(=O)NC(C)(C)C)c3ccccc23)n1CC1CCCCC1 [17/239] | – | – | – |
| 7.5 | 7.6 | 794 nM | Cc1c(C(=O)N[C@H]2C[C@H](C(=O)O)C2)cc(-c2ccc(S(=O)(=O)NC(C)(C)C)c3ccccc23)n1CC1CCCCC1 [17/240] | – | – | – |
| 7.7 | 7.8 | 1260 nM | Cc1c(C(=O)NCCC(C)(C)C(=O)O)cc(-c2ccc(S(=O)(=O)NC(C)(C)C)c3ccccc23)n1CC1CCCCC1 [17/241] | – | – | – |
| 7.5 | 7.6 | 398 nM | Cc1c(C(=O)NC2CCOCC2)cc(-c2ccc(S(=O)(=O)NC(C)(C)C)c3ccccc23)n1CC1CCC1 [17/242] | – | – | – |
| 7.4 | 7.6 | 631 nM | Cc1c(C(=O)NCC2(O)CCOCC2)cc(-c2ccc(S(=O)(=O)NC(C)(C)C)c3ccccc23)n1CC1CCC1 [17/243] | – | – | – |
| 5.7 | 5.7 | > 20000 nM | Cc1c(C(=O)NC2CCOCC2)cc(-c2ccc(S(=O)(=O)NC(C)(C)C)c(C(F)(F)F)n2)n1CC1CCCCC1 [17/245] | – | – | – |
| 6.1 | 6.2 | 3980 nM | Cc1c(C(=O)NCC2CC(C(=O)O)C2)cc(-c2cc(C(C)(C)O)cc(C3(C)CC3)c2)n1CC1CCCCC1 (stereo not drawn) [17/246] | – | – | – |
| 6.4 | 7.3 | 2510 nM | Cc1c(C(=O)NC2CCOCC2)cc(-c2cc(F)c(NS(=O)(=O)C(C)(C)C)c(C(F)(F)F)c2)n1CC1CCCCC1 [17/248] | – | – | – |
| – | – | – | Cc1c(C(=O)NC2CCOCC2)cc(-c2ccc(-c3nnc(C(C)(C)C)o3)c(C(C)(C)C)c2)n1CC1CCCCC1 [17/251] | 6.3/6.9/6.9 | 6.3/6.9/6.9 | 501 nM |
| 6.5 | 6.6 | 1580 nM | Cc1c(C(=O)N[C@H]2C[C@H](C(=O)O)C2)cc(-c2ccc(-c3nnc(C(C)(C)C)o3)c(C(C)(C)C)c2)n1CC1CCCCC1 [17/252] | – | – | – |
| 7.0 | 7.2 | 631 nM | Cc1c(C(=O)NC2CCOCC2)cc(-c2ccc(S(=O)(=O)NC(C)(C)C)c(C(F)(F)F)c2)n1[C@@H](C)C1CCCCC1 [17/253] | – | – | – |

| SMILES | pIC50 (FF) (RORγ; [2]) | pIC50 (REN) (RORγ; [3]) | IC50 [1, 4] | pIC50 (FF) (RORγ) | pIC50 (REN) (RORγ) | IC50 [1] |
| --- | --- | --- | --- | --- | --- | --- |
| Cc1c(C(=O)NC2CCOCC2)cc(-c2cc(Cl)cc(C(=O)NC(C)(C)C)c2)n1CC1CCCCC1 [17/219] | 6.9 | 7.0 | 501 nM | – | – | – |
| Cc1c(C(=O)N2CCCC(C)(C(=O)O)C2)cc(-c2ccc(S(=O)(=O)NC(C)(C)C)c(C(F)(F)F)c2)n1CC1CCCCC1 (stereo not drawn) [17/225] | 7.6 | 7.6 | 794 nM | – | – | – |
| Cc1c(C(=O)NC2CCOCC2)cc(-c2ccc(S(=O)(=O)NC(C)(C)C)c(C(C)C)c2)n1CC1CCCCC1 [17/226] | 8.2 | 8.2 | 316 nM | – | – | – |
| Cc1c(C(=O)NC2CCOCC2)cc(-c2ccc(S(=O)(=O)NC(C)(C)C)c(C(F)(F)F)c2F)n1CC1CCCCC1 [17/231] | 7.5 | 7.7 | 251 nM | – | – | – |
| Cc1c(C(=O)NC2CCOCC2)cc(-c2ccc(S(=O)(=O)NC(C)(C)C)cc2)n1CC1CCCCC1 [17/237] | 6.5 | 6.5 | 1260 nM | – | – | – |
| Cc1c(C(=O)NC2CCOCC2)cc(-c2ccc(NS(=O)(=O)C(C)(C)C)c(C(F)(F)F)c2)n1CC1CCCCC1 [17/247] | 6.9 | 7.0 | 1260 nM | – | – | – |
| Cc1c(C(=O)NC2CCOCC2)cc(-c2ccc(-c3ccnn3C(C)C)c(C(F)(F)F)c2)n1CC1CCCCC1 [17/249] | 6.6 | 6.7 | 501 nM | – | – | – |
| Cc1c(C(=O)NCCC(C)(C)C(=O)O)cc(-c2ccc(-c3ccnn3C(C)C)c(C(F)(F)F)c2)n1CC1CCCCC1 [17/250] | 6.6 | 6.5 | 1580 nM | – | – | – |
